This is an account of results in publication PMC3432061, “Biochemical and Mass Spectrometric Characterization of Human N-Acylethanolamine-Hydrolyzing Acid Amidase Inhibition” (PLoS ONE, 2012).

For data set [1], the target named is T1, hNAAA (Homo sapiens, UniProt Q02083).
T1 construct: the active mature form of the enzyme is a heterodimer, consisting of a non-covalent complex of the α- and β-subunits; hexa-histidine (C); made in house; host or cells: HEK293 (stably transfected)
T1 sequence (Q02083 126-359 limits assumed): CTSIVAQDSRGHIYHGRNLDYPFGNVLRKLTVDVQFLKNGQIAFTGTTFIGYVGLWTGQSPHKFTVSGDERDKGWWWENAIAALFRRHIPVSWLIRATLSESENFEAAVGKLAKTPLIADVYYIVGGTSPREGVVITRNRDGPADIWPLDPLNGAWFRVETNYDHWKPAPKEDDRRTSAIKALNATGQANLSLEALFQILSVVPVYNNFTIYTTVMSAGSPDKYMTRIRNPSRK
T1 sequence (Q02083 29-125 limits assumed): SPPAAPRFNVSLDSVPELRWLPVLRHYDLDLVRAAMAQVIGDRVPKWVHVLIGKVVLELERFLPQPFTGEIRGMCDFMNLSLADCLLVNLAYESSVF
Details: method as in PMID 22040171. The conditions noted are these: substrate of hNAAA; cited from earlier work.

Data set [2] has as its target T1, hNAAA. Description: 8 point fluorescent assay, hydrolysis of PAMCA by purified hNAAA. The class given is biochemical. The conditions noted are these: for IC50: purified hNAAA, 2 hours preincubation, fluorescent assay, PAMCA 10 µM. The method, then:
We previously described the fluorogenic substrate N-(4-methyl coumarin)palmitamide (PAMCA), which is hydrolyzed by NAAA to the fluorescent compound 7-amino-4-methyl coumarin (AMC) and palmitic acid. For hNAAA inhibition we conducted three point concentration assays with compounds to determine their potencies and ranges of enzyme inhibition. Purified activated NAAA (final concentration of 0.25 µg/mL) was incubated in assay buffer made up to a total volume of 180 µL, followed by addition of the compound dissolved in 10 µL DMSO (along with DMSO neat for the control sample) with the final concentrations for each compound of 1, 10, and 100 µM, in triplicate on a 96 well plate. These samples were allowed to incubate for 15 min at room temperature and then 10 µL of a PAMCA stock solution in DMSO (final PAMCA concentration 10 µM) was added. After 5 minutes of agitation on a shaking plate, the reaction was allowed to proceed at 37°C for 30 minutes and enzyme activity was monitored and calculated as previously described.
(§1) To set up 8 point fluorescent and radioactive assays for each point, the compound in 45 µL DMSO and purified activated NAAA (final enzyme concentration of 0.25 µg/mL) in 810 µL of NAAA assay buffer were incubated for 2 hours in order for the covalent compounds to reach full inhibition. For the fluorescent assays, 190 µL of each of the above samples (in triplicate) were transferred to a 96 well plate, followed by addition of 10 µL of a PAMCA stock solution in DMSO for a final PAMCA concentration of 10 µM. After 5 minutes of agitation on a shaking plate, the reaction was allowed to proceed at 37°C for 30 minutes and enzyme activity was monitored and calculated as previously described. The complete description of the novel fluorescent 8 point assay to determine the IC50 value for compounds inhibiting hNAAA activity will be detailed elsewhere.

In data set [3] the target is T1, hNAAA. Description: MALDI-TOF MS and MS/MS analysis of tryptic digest of inhibitor treated hNAAA. The conditions noted are these: 10-fold molar excess of compound, 37°C, 2 hours, pH 4.5. On the procedure: To 10 µg (0.2 nmol) of purified and activated NAAA in 18 µL of 100 mM citrate-sodium phosphate buffer (pH 4.5) 2 µL of a DMSO solution containing 2 nmol of the compound of interest were added or 2 µL DMSO. The inhibitor and DMSO treated enzyme solutions were incubated at 37°C for 2 hours and then desalted prior to digestion. These were desalted by re-concentrating 3 times to original volume after 25 fold dilution with 50 mM ammonium bicarbonate buffer, pH 8.0, using 10 kDa membrane Ultra-0.5 Centrifugal Filters (Millipore). The NAAA samples were incubated overnight at 37°C with MS-grade trypsin (“Trypsin Gold”, Promega) at a NAAA:trypsin mass to mass ratio of 100∶1. The tryptic digested NAAA was analyzed immediately or frozen at −80°C for future analysis.
0.5 µL of the trypsin digested NAAA was mixed with 0.5 µL α-cyano-4-hydroxycinnaminic acid matrix solution (5 mg/mL dissolved in 50% acetonitrile, 50% water, and 0.1% trifluoroacetic acid) and spotted onto an Opti-TOF 384-well plate insert. MALDI-TOF MS spectra were acquired on a 4800 MALDI TOF/TOF mass spectrometer (Applied Biosystems, Foster City, CA) fitted with a 200-Hz solid state UV laser (wavelength 355 nm). The spectra of the peptides were acquired in reflectron mode. The conditions used for the MS experiments and instrument calibration were performed as described by Zvonok et. al.

Data set [4] addresses T1, hNAAA. Description: Lineweaver-Burk (double reciprocal) plot of hNAAA inhibition. The class given is biochemical.
Another data set addresses T2, rFAAH (Rattus norvegicus, UniProt P97612).
T2 sequence (P97612 1-579): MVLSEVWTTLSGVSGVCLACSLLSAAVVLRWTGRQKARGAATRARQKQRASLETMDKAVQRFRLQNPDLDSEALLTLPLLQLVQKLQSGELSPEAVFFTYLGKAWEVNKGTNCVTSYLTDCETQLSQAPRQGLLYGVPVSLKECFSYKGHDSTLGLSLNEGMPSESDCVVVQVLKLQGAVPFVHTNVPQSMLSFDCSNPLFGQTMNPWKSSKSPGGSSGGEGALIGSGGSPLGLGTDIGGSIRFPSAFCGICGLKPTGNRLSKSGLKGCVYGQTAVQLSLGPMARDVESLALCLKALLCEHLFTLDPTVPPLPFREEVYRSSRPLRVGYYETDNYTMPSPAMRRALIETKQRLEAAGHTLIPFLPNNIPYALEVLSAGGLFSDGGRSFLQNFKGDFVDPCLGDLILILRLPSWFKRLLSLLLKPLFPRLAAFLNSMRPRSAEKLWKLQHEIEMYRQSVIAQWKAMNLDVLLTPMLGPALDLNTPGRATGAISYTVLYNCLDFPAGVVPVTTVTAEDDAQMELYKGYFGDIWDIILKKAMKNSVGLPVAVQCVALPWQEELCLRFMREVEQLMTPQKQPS
Description: rFAAH inhibition (selectivity). The class given is biochemical.

For a further data set, the target named is T3, hMGL (Homo sapiens, UniProt Q99685).
T3 sequence (Q99685 1-303): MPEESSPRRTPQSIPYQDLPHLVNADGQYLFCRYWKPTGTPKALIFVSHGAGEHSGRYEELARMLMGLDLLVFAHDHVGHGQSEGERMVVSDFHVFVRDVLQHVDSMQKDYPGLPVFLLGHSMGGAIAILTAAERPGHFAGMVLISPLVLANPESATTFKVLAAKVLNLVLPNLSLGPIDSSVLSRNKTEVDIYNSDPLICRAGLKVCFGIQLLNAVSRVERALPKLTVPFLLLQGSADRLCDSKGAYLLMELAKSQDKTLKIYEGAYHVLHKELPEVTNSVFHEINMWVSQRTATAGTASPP
Description: hMGL inhibition (selectivity). The class given is biochemical.

Data set [5] has as its target T1, hNAAA. Description: Rapid dilution experiment with hNAAA (reversibility). The class given is biochemical. The conditions noted are these: AM6701: 100 nM for 120 min, twenty-fold dilution to 5 nM, up to 24 h.
The target of data set [6] is T1, hNAAA. Description: 8 point radioactive assay, hydrolysis of [14C]N-palmitoylethanolamine by purified hNAAA. The class given is biochemical. The conditions noted are these: 2 hours preincubation, PEA 25 µM. The method, then: as §1
The 8 point radioactive assays, similar to that described by Saturnino et. al., [10] were performed by taking 95 µL of the enzyme-compound solution described above and adding a 5 µL solution of [^1,2 −14C]N-palmitoylethanolamine (10,000 c.p.m./sample) in DMSO, with a final PEA concentration of 25 µM. The reaction was performed for 30 minutes at 37°C and terminated by addition of 200 µL chloroform/methanol (1∶1, v/v). The aqueous layer containing the [^1,2 −14C]Ethanolamine was quantified by reading with a 1450 Microbeta Walluc Trilux Liquid Scintillation and Luminescence Counter. Inhibition constants were calculated using pro Fit software (Quantum Soft, Uetikon am See, Switzerland) and a Levenberg-Marquardt algorithm.

Data set [7] deals with T1, hNAAA. Description: Fluorometric assay to determine kinact/Ki for irreversible hNAAA inhibition. It counts as biochemical. The conditions noted are these: for kinact: PAMCA 12.4 µM = 2×Km, no preincubation, read for 120 minutes; for kinact/K I: second order rate constant. On the procedure:
The k inact and K I values for covalent inhibitors were determined similar to Mileni et. al. […] The data for each inhibitor concentration ([I]) were fit to a first order equation (Eq. 1) shown below using KaleidaGraph (Synergy Software, Reading, PA) in order to determine k observed (k obs), where Ft is the fluorescence at time t, F 0 is the fluorescence at t = infinite time, F 1 is the total fluorescence change, and k obs is the first order rate constant for enzyme inactivation. To determine the inhibitor dissociation constant (K I) and the first order rate constant for enzyme inactivation at infinite inhibitor concentration (k inact), the k obs values for each [I] obtained above were fit to a curve using pro Fit software and a Levenberg-Marquardt algorithm according to Eq. 2, which simplifies to Eq. 3 at [S] = 2×K m as used in this experiment. [drawing 1] (1) [drawing 2] (2) [drawing 3] (3)

The subject of the next data set is FAAH. Details: method as in PMID 22270809. The conditions noted are these: cited from earlier work.
Another data set deals with recombinant rat NAAA. The conditions noted are these: substrate heptadecenoylethanolamide, HEK293 cell lysate, LC/MS based assay; cited from earlier work.

A word on the Km: it is the concentration of substrate that gives half-maximal velocity. As to `CCCCCCCCCCCCCCCC(=O)Nc1ccc2c(C)cc(=O)oc2c1` [PAMCA, N-(4-methylcoumarin)palmitamide], on hNAAA [1], the Michaelis constant (Km) is 6.2 µM.

For orientation: IC50 means the concentration at which inhibition is half-maximal. Take `CCCCCCCCCCCCCCCN=C=S` [AM9023, 1-isothiocyanatopentadecane]: the “Effect of longer pre-incubation on IC50” value on hNAAA [2] (hNAAA) is on record as “unaffected”. Besides, the IC50 at hNAAA [2] was 350 ± 70 nM; on rFAAH, over 10000 nM; at hMGL it was over 10000 nM; on hNAAA [6], 600 ± 130 nM. In addition, the “Covalent modification of hNAAA seen by MALDI-TOF MS of tryptic digest” value (“Covalent modification of hNAAA seen” below) on hNAAA [3] is listed as “identical”. Moreover, the “Type of inhibition (Lineweaver-Burk plot)” value on hNAAA [4] was “competitive type inhibitor”. Also, the “Recovery of enzyme activity after rapid dilution” value (shortened to “Recovery of enzyme activity”) at hNAAA [5] was “fully recovered”.

As usually defined, the kinact is the rate constant of inactivation at saturating inhibitor. Take `CN(C)C(=O)n1nnc(Cc2ccc(-c3ccccc3)cc2)n1` [AM6701, 5-((biphenyl-4-yl)methyl)-N,N-dimethyl-2H-tetrazole-2-carboxamide]: the “Decrease of IC50 on extension of preincubation time to 120 min” value on hNAAA [2] (hNAAA, data not presented) was “more than 50 fold”. Moreover, the IC50 was 7.7 ± 0.2 nM against hNAAA [2], 7.2 ± 2.5 nM on hNAAA [6] and 1.2 nM with FAAH. Further, the “Covalent modification of hNAAA seen” value on hNAAA [3] is reported as “carbamylation of the N-terminal cysteine”. Further, at hNAAA [5], the “Recovery of enzyme activity” value was “no recovery of enzyme activity”. In addition, the maximal inactivation rate constant (kinact) on hNAAA [7] is 0.0007 s⁻¹. Besides, the “kinact/K I” value at hNAAA [7] stood at 55000 M⁻¹ s⁻¹.

Regarding `O=C(N[C@H]1COC1=O)OCc1ccccc1` [N-Cbz-serine β-lactone, N-Benzyloxycarbonyl-L-serine β-lactone, reference compound], the IC50 on hNAAA [2] is 1700 ± 200 nM; in the data set with recombinant rat NAAA, 2960 ± 300 nM; at hNAAA [6] it was 1900 ± 500 nM. Moreover, at hNAAA [3], the “Covalent modification of hNAAA seen” value was “Cys126 modified by the inhibitor”. Moreover, on hNAAA [5], the “Recovery of enzyme activity” value is on record as “slow regeneration of enzyme catalytic activity”. For the same molecule, the inactivation rate constant (kinact) at hNAAA [7] is 0.000383 s⁻¹. In addition, at hNAAA [7], the “kinact/K I” value was found to be 290 M⁻¹ s⁻¹.

In the case of `CCCCCCCCCCCCCCCC(=O)NCCO` [PEA, N-palmitoylethanolamine], the Km at hNAAA [1] was 21 µM.
